We go through ten compounds from ChEMBL document CHEMBL1667756, “Design, synthesis and antibacterial activity of 3-methylenepyrrolidine formyl hydroxyamino derivatives as novel peptide deformylase inhibitors” (2011).

Holding throughout (format): functional
Test [1] has as its system Staphylococcus aureus. Briefly: Antibacterial activity against Staphylococcus aureus ATCC 25923 by broth micro dilution technique.
In test [2] the test system is Staphylococcus aureus. Briefly: Antibacterial activity against methicillin-susceptible Staphylococcus aureus ATCC 29213 by broth micro dilution technique.
For test [3], the system named is Staphylococcus aureus. Briefly: Antibacterial activity against methicillin-resistant Staphylococcus aureus ATCC 43300 by broth micro dilution technique.
The subject of test [4] is Staphylococcus epidermidis. Briefly: Antibacterial activity against methicillin-resistant Staphylococcus epidermidis ATCC 12228 by broth micro dilution technique.
Test [5] relates to Staphylococcus aureus. Briefly: Antibacterial activity against methicillin-susceptible Staphylococcus aureus by agar dilution method. For orientation: In agar dilution the substance is mixed into plates at graded concentrations.
Test [6] concerns Staphylococcus aureus. Briefly: Antibacterial activity against methicillin-resistant Staphylococcus aureus by agar dilution method.
In test [7] the test system is Staphylococcus epidermidis. Briefly: Antibacterial activity against methicillin-susceptible Staphylococcus epidermidis by agar dilution method.
The test system of test [8] is Staphylococcus epidermidis. Briefly: Antibacterial activity against methicillin-resistant Staphylococcus epidermidis by agar dilution method.
Test [9] concerns Streptococcus pneumoniae. Briefly: Antibacterial activity against penicillin-susceptible Streptococcus pneumoniae by agar dilution method.
The test system of test [10] is Streptococcus pneumoniae. Briefly: Antibacterial activity against penicillin-resistant Streptococcus pneumoniae by agar dilution method.
The subject of test [11] is Haemophilus influenzae. Briefly: Antibacterial activity against Haemophilus influenzae by agar dilution method.
Test [12] concerns Staphylococcus aureus. Briefly: Antibacterial activity against Staphylococcus aureus OXFORD by broth micro dilution technique.
The subject of test [13] is Staphylococcus aureus. Briefly: Antibacterial activity against Staphylococcus aureus WCUH29 by broth micro dilution technique.
Another test deals with Enterococcus faecalis. Briefly: Antibacterial activity against Enterococcus faecalis by broth micro dilution technique.
Another test has as its system Enterococcus faecium. Briefly: Antibacterial activity against Enterococcus faecium X7501 by broth micro dilution technique.
The subject of test [14] is Haemophilus influenzae. Briefly: Antibacterial activity against Haemophilus influenzae Q1 by broth micro dilution technique.
Test [15] deals with Haemophilus influenzae. Briefly: Antibacterial activity against Haemophilus influenzae H128 by broth micro dilution technique.
In test [16] the test system is Haemophilus influenzae. Briefly: Antibacterial activity against AcrA deficient Haemophilus influenzae H128 by broth micro dilution technique.
The subject of the next test is Moraxella catarrhalis. Briefly: Antibacterial activity against Moraxella catarrhalis 1502 by broth micro dilution technique.
In test [17] the test system is Streptococcus pneumoniae. Briefly: Antibacterial activity against Streptococcus pneumoniae 1629 by broth micro dilution technique.
For test [18], the system named is Streptococcus pneumoniae. Briefly: Antibacterial activity against Streptococcus pneumoniae N1387 by broth micro dilution technique.
The subject of test [19] is Streptococcus pneumoniae. Briefly: Antibacterial activity against Streptococcus pneumoniae ERY2 by broth micro dilution technique.
A further test concerns Escherichia coli. Briefly: Antibacterial activity against Escherichia coli by broth micro dilution technique.
The subject of test [20] is Streptococcus pyogenes. Briefly: Antibacterial activity against Streptococcus pyogenes 1307006P by broth micro dilution technique.
Test [21] deals with Streptococcus pyogenes. Briefly: Antibacterial activity against Streptococcus pyogenes 1308007P by broth micro dilution technique.

In brackets after ≈: the same amount, converted by molar mass. Bounds are passed on as bounds.

`C=C1C[C@@H](C(=O)Nc2ccccc2)N(C(=O)[C@H](CC2CCCC2)CN(O)C=O)C1`: the MIC against Staphylococcus aureus [1] turned out to be 0.5 µg/mL (≈ 1.25 µM); with Staphylococcus aureus [2], 1 µg/mL (≈ 2.5 µM); in the test with Staphylococcus aureus [3], 0.25 µg/mL (≈ 0.626 µM); in [4] it was 0.5 µg/mL (≈ 1.25 µM).

Take `C=C1C[C@@H](C(=O)Nc2ccccc2)N(C(=O)[C@H](CCCC)CN(O)C=O)C1`: the MIC against Staphylococcus aureus [1] amounted to 2 µg/mL (≈ 5.36 µM); against Staphylococcus aureus [2], 8 µg/mL (≈ 21.4 µM); against Staphylococcus aureus [3], 1 µg/mL (≈ 2.68 µM); in test [4], 2 µg/mL (≈ 5.36 µM).

As to `CCCC[C@H](CN(O)C=O)C(=O)N1CCC[C@H]1C(=O)Nc1ccc(F)c[n+]1[O-]`, the MIC in the test on Staphylococcus aureus [1] was 0.5 µg/mL (≈ 1.26 µM); against Staphylococcus aureus [2] it was 2 µg/mL (≈ 5.05 µM); against Staphylococcus aureus [3], 0.5 µg/mL (≈ 1.26 µM); in test [4] it was 1 µg/mL (≈ 2.52 µM); in the test with Staphylococcus aureus [5], 0.5 µg/mL (≈ 1.26 µM); in the test with Staphylococcus aureus [6], 0.125 µg/mL (≈ 0.315 µM). For the same compound, the MIC in [7] worked out at 0.5 µg/mL (≈ 1.26 µM); in test [8], 0.125 µg/mL (≈ 0.315 µM); against Streptococcus pneumoniae [9], 0.125 µg/mL (≈ 0.315 µM); in the test with Streptococcus pneumoniae [10], 0.5 µg/mL (≈ 1.26 µM); against Haemophilus influenzae [11], 2 µg/mL (≈ 5.05 µM).

Turning to `CC1(C)S[C@@H]2[C@H](NC(=O)Cc3ccccc3)C(=O)N2[C@H]1C(=O)O` [PENICILLIN G], the MIC with Staphylococcus aureus [1] is 0.0625 µg/mL (≈ 0.187 µM); with Staphylococcus aureus [2] it was 1 µg/mL (≈ 2.99 µM); with Staphylococcus aureus [3] it was 64 µg/mL (≈ 191 µM); in test [4] it was 2 µg/mL (≈ 5.98 µM); in the test with Staphylococcus aureus [5] it was 0.5 µg/mL (≈ 1.5 µM); in the test on Staphylococcus aureus [6], 64 µg/mL (≈ 191 µM). For the same compound, the MIC amounted to 4 µg/mL (≈ 12 µM) in test [7]; 64 µg/mL (≈ 191 µM) in [8]; 2 µg/mL (≈ 5.98 µM) against Streptococcus pneumoniae [9]; 64 µg/mL (≈ 191 µM) in the test with Streptococcus pneumoniae [10]; 16 µg/mL (≈ 47.8 µM) against Haemophilus influenzae [11].

Turning to `C=C1C[C@@H](C(=O)Nc2ccc(F)cc2)N(C(=O)[C@H](CCCC)CN(O)C=O)C1`, the MIC in the test with Staphylococcus aureus [1] amounted to 1 µg/mL (≈ 2.55 µM); in the test with Staphylococcus aureus [2] it was 4 µg/mL (≈ 10.2 µM); against Staphylococcus aureus [3], 0.5 µg/mL (≈ 1.28 µM); in [4], 1 µg/mL (≈ 2.55 µM).

Consider `CN[C@H](CC(C)C)C(=O)N[C@H]1C(=O)N[C@@H](CC(N)=O)C(=O)N[C@H]2C(=O)N[C@H]3C(=O)N[C@H](C(=O)N[C@H](C(=O)O)c4cc(O)cc(O)c4-c4cc3ccc4O)[C@H](O)c3ccc(c(Cl)c3)Oc3cc2cc(c3O[C@@H]2O[C@H](CO)[C@@H](O)[C@H](O)[C@H]2O[C@H]2C[C@](C)(N)[C@H](O)[C@H](C)O2)Oc2ccc(cc2Cl)[C@H]1O` [VANCOMYCIN], for which the MIC against Streptococcus pneumoniae [9] and in the test with Streptococcus pneumoniae [10] was 1 µg/mL (≈ 0.69 µM) throughout.

For the compound `C=C1C[C@@H](C(=O)N2CCOCC2)N(C(=O)[C@H](CC2CCCC2)CN(O)C=O)C1`, the MIC was determined as 4 µg/mL (≈ 10.2 µM) against Staphylococcus aureus [1], 8 µg/mL (≈ 20.3 µM) against Staphylococcus aureus [2], 2 µg/mL (≈ 5.08 µM) with Staphylococcus aureus [3] and 4 µg/mL (≈ 10.2 µM) in [4].

With `C=C1C[C@@H](C(=O)NC2CC2)N(C(=O)[C@H](CC2CCCC2)CN(O)C=O)C1`, the MIC is 4 µg/mL (≈ 11 µM) with Staphylococcus aureus [1]; 8 µg/mL (≈ 22 µM) with Staphylococcus aureus [2]; 1 µg/mL (≈ 2.75 µM) against Staphylococcus aureus [3]; 4 µg/mL (≈ 11 µM) in test [4]; 2 µg/mL (≈ 5.5 µM) against Staphylococcus aureus [5]; 0.5 µg/mL (≈ 1.38 µM) in the test on Staphylococcus aureus [6]. For the same compound, the MIC in [7] came out at 1 µg/mL (≈ 2.75 µM); in test [8] it was 4 µg/mL (≈ 11 µM); in the test on Streptococcus pneumoniae [9], 1 µg/mL (≈ 2.75 µM); in the test with Streptococcus pneumoniae [10], 1 µg/mL (≈ 2.75 µM); in the test with Haemophilus influenzae [11] it was 4 µg/mL (≈ 11 µM).

On to `C=C1C[C@@H](C(=O)Nc2ncc(C)s2)N(C(=O)[C@H](CCCC)CN(O)C=O)C1`, for which the MIC in the test with Staphylococcus aureus [1] came out at 0.5 µg/mL (≈ 1.27 µM); with Staphylococcus aureus [2], 1 µg/mL (≈ 2.53 µM); against Staphylococcus aureus [3], 0.125 µg/mL (≈ 0.317 µM); in test [4] it was 0.125 µg/mL (≈ 0.317 µM); against Staphylococcus aureus [5] it was 1 µg/mL (≈ 2.53 µM); with Staphylococcus aureus [6], 0.5 µg/mL (≈ 1.27 µM). Also, the MIC in test [7] is 1 µg/mL (≈ 2.53 µM); in [8] it was 2 µg/mL (≈ 5.07 µM); in the test on Streptococcus pneumoniae [9] it was 0.25 µg/mL (≈ 0.634 µM); against Streptococcus pneumoniae [10] it was 0.5 µg/mL (≈ 1.27 µM); in the test on Haemophilus influenzae [11], 4 µg/mL (≈ 10.1 µM); against Staphylococcus aureus [12], 0.5 µg/mL (≈ 1.27 µM). The MIC against Staphylococcus aureus [13] was 0.125 µg/mL (≈ 0.317 µM); against Enterococcus faecalis, 4 µg/mL (≈ 10.1 µM); in the test with Enterococcus faecium, 2 µg/mL (≈ 5.07 µM); in the test on Haemophilus influenzae [14] it was 4 µg/mL (≈ 10.1 µM); against Haemophilus influenzae [15], 4 µg/mL (≈ 10.1 µM); in the test on Haemophilus influenzae [16] it was not above 0.06 µg/mL. For the same compound, the MIC with Moraxella catarrhalis is not above 0.06 µg/mL; against Streptococcus pneumoniae [17], 2 µg/mL (≈ 5.07 µM); against Streptococcus pneumoniae [18], 1 µg/mL (≈ 2.53 µM); against Streptococcus pneumoniae [19], 2 µg/mL (≈ 5.07 µM); in the test with Escherichia coli, 64 µg/mL (≈ 162 µM); against Streptococcus pyogenes [20] it was 2 µg/mL (≈ 5.07 µM). For the same compound, in the test on Streptococcus pyogenes [21], the MIC was 2 µg/mL (≈ 5.07 µM).

In the case of `C=C1C[C@@H](C(=O)Nc2ccc(O)cc2)N(C(=O)[C@H](CCCC)CN(O)C=O)C1`, the MIC with Staphylococcus aureus [1] amounted to 8 µg/mL (≈ 20.5 µM); in the test on Staphylococcus aureus [2], 32 µg/mL (≈ 82.2 µM); against Staphylococcus aureus [3], 4 µg/mL (≈ 10.3 µM); in test [4], 8 µg/mL (≈ 20.5 µM).
